Measured values as given in PubChem BioAssay (NCI).
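The compound was tested at five concentrations on cells cultured in 96-well plates, with a 48-hour exposure period. Definition used: TGI = concentration required for complete inhibition of growth.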

Legend:
Assay in all cases: NCI anticancer screen, dose series, 48 h
ACHN renal = test system: ACHN renal
CAKI-1 renal = test system: CAKI-1 renal
DU-145 prostate = test system: DU-145 prostate
HCT-15 colon = test system: HCT-15 colon
MCF7 breast = test system: MCF7 breast
MDA-N = test system: MDA-N
MOLT-4 leukemia = test system: MOLT-4 leukemia
NCI-H522 lung = test system: NCI-H522 lung
SF-268 CNS = test system: SF-268 CNS
SK-OV-3 ovarian = test system: SK-OV-3 ovarian
U251 CNS = test system: U251 CNS

Compound | TGI (ACHN renal) | TGI (CAKI-1 renal) | TGI (DU-145 prostate) | TGI (HCT-15 colon) | TGI (MCF7 breast) | TGI (MDA-N) | TGI (MOLT-4 leukemia) | TGI (NCI-H522 lung) | TGI (SF-268 CNS) | TGI (SK-OV-3 ovarian) | TGI (U251 CNS)
O=C1c2ccccc2C(=O)N1c1ccc(OCCN2CCCCC2)cc1 | > 100 µM | > 100 µM | > 100 µM | > 100 µM | > 100 µM | > 100 µM | > 100 µM | > 100 µM | > 100 µM | > 100 µM | > 100 µM
C=C(Cl)C(Cl)(CBr)CCC(Cl)C(C)(C)Cl (configuration not stated) | 3.9 µM | 2.48 µM | 3.31 µM | 14.7 µM | 3.56 µM | 7.55 µM | 53 µM | 23 µM | 2.92 µM | 70.8 µM | 1.69 µM
Clc1nc2c(-c3cccs3)ncnc2n1Cc1ccccc1 | 4.36 µM | > 21 µM | 6.18 µM | > 100 µM | > 100 µM | > 100 µM | > 100 µM | > 100 µM | > 100 µM | > 95.4 µM | > 100 µM
O=C(NC(Nc1ccc(F)c(Cl)c1)(C(F)(F)F)C(F)(F)F)C(C(F)(F)F)C(F)(F)F | 36.9 µM | > 100 µM | > 100 µM | > 100 µM | > 100 µM | > 100 µM | 57 µM | 44.8 µM | > 100 µM | > 100 µM | > 100 µM
C[N+]1(C)CN(c2ccccc2)C2(CCN(CCCC(=O)c3cccs3)CC2)C1=O | > 100 µM | > 100 µM | > 100 µM | > 100 µM | > 100 µM | > 100 µM | > 100 µM | > 100 µM | > 100 µM | > 100 µM | > 100 µM
C[C@@H]1OC(=O)C[C@H]2CC(=O)N(CCc3cn(S(=O)(=O)C(F)(F)F)c4ccccc34)C[C@@H]21 | > 100 µM | > 100 µM | > 100 µM | > 100 µM | > 100 µM | > 100 µM | > 100 µM | > 100 µM | > 100 µM | > 100 µM | > 100 µM
COC(=O)CCCCC/C(=C\C(=O)C(Cl)(Cl)Cl)OC | > 100 µM | > 100 µM | 63.1 µM | 68.2 µM | 58.5 µM | 71.3 µM | 60.1 µM | 41.1 µM | 86.3 µM | > 100 µM | 90 µM
CC1(C)CCc2c(c(N=Nc3ccccc3)c3ccccc3c2O)O1 | 33.5 µM | 69.1 µM | 83 µM | > 100 µM | 47 µM | 41.7 µM | > 100 µM | > 100 µM | > 100 µM | 50.3 µM | 61.3 µM
Nc1cccc(OCc2nc(N)nc(N)c2-c2ccc(Cl)cc2)c1 | > 100 µM | > 100 µM | > 100 µM | > 100 µM | > 100 µM | > 100 µM | > 100 µM | > 100 µM | > 100 µM | > 100 µM | > 100 µM
CCC(=O)NCCc1c[nH]c2ccc(OC)cc12 | > 100 µM | > 100 µM | > 100 µM | > 100 µM | > 100 µM | > 100 µM | > 100 µM | > 100 µM | > 100 µM | > 100 µM | > 100 µM
O=C(O)c1ccccc1/C=N\NC1=NCCN1 | > 100 µM | > 100 µM | > 100 µM | > 100 µM | > 100 µM | > 100 µM | > 100 µM | > 100 µM | > 100 µM | > 100 µM | > 100 µM
CC(C)[Si](OC1=CCCCCC12C(=O)N(C)c1ccccc12)(C(C)C)C(C)C (configuration not stated) | 35.9 µM | 40.7 µM | 29.9 µM | 33.8 µM | 34 µM | 79.7 µM | > 100 µM | 33.7 µM | 48.1 µM | 46.6 µM | 36.3 µM
C=CCn1c(=O)c(C)cn(/C(=C/C(=O)OCC)C(=O)OCC)c1=O | 21.2 µM | 3.65 µM | > 74.3 µM | 13.7 µM | 18.9 µM | 33.7 µM | 21.2 µM | 10.9 µM | 44.3 µM | > 100 µM | 28.4 µM
CC(C)(C)OC(=O)NC(Cc1ccc([N+](=O)[O-])cc1)C(=O)NC(CCCCNC(=O)OCc1ccccc1)C(=O)ON1C(=O)CCC1=O (configuration not stated) | > 100 µM | > 100 µM | > 100 µM | > 100 µM | > 100 µM | > 100 µM | > 100 µM | > 100 µM | > 100 µM | > 100 µM | > 100 µM
CC/C(Cl)=N\OC(=O)Nc1ccc(C#N)cc1 | 27.4 µM | 9.32 µM | 29.6 µM | 21.7 µM | 29.6 µM | 30 µM | 11 µM | 2.82 µM | 33 µM | 22.3 µM | 30.8 µM
O=C(/C=C/c1ccc(O)c(O)c1)OCCOC(=O)/C=C/c1ccc(O)c(O)c1 | 85.8 µM | > 100 µM | 79.8 µM | > 100 µM | 90.9 µM | 41.6 µM | 44.9 µM | 46.9 µM | > 100 µM | 55.5 µM | 59.2 µM
O=C1OC(CN2CCN(c3ccccc3)CC2)CN1C(=S)Nc1ccccc1 (configuration not stated) | > 100 µM | > 100 µM | > 100 µM | > 100 µM | > 100 µM | > 100 µM | > 100 µM | > 100 µM | > 100 µM | > 100 µM | > 100 µM
NC(=O)N(O)c1cccc(Br)c1 | > 100 µM | > 100 µM | > 100 µM | > 100 µM | > 100 µM | > 100 µM | > 100 µM | > 100 µM | > 100 µM | > 100 µM | > 100 µM
Cc1cn(C2CC(N=[N+]=[N-])C(CO[Si](C)(C)C(C)(C)C)O2)c(=O)[nH]c1=O (configuration not stated) | 48 µM | 37.1 µM | 45.1 µM | 37.9 µM | 58 µM | 34.2 µM | > 100 µM | 35.6 µM | 45.8 µM | 37.1 µM | 33 µM
CC1=C(C(=O)OC(C)C)C(c2ccccc2[N+](=O)[O-])C(C(=O)OC(CO[N+](=O)[O-])CO[N+](=O)[O-])=C(C)N1 (configuration not stated) | 23.7 µM | 19.3 µM | > 100 µM | 16.2 µM | 27.9 µM | 8.43 µM | 5.9 µM | 8.45 µM | 16.8 µM | 12.6 µM | 13.4 µM
N#Cc1c(NC(=S)NCc2ccccc2)sc2c1CCN(N1CCc3c(sc(NC(=S)NCc4ccccc4)c3C#N)C1)C2 | > 100 µM | > 100 µM | > 100 µM | > 100 µM | > 100 µM | > 100 µM | > 100 µM | > 100 µM | > 100 µM | > 100 µM | > 100 µM
Nc1c(C(=O)c2ccccc2)[nH]c(NCc2ccccc2)c1C(=S)Nc1ccccc1 | > 100 µM | > 100 µM | > 100 µM | > 100 µM | > 100 µM | > 100 µM | > 100 µM | > 100 µM | > 100 µM | > 100 µM | > 100 µM
